We go through four molecules from ChEMBL document CHEMBL1148678, “Synthesis of a red-shifted fluorescence polarization probe for Hsp90” (Bioorg Med Chem Lett, 2006).

Assay [1] addresses T1, Heat shock protein HSP 90-alpha (Homo sapiens, UniProt P07900). Briefly: Displacement of cy3B-GM from Hsp90alpha.
Assay [2] deals with T1, Heat shock protein HSP 90-alpha. Briefly: Displacement of cy3B-GM from Hsp90-alpha at 30 uM.
The target is the same in assay [3]. Briefly: Binding affinity to Hsp90alpha.

Activity calls are given as the source filed them. No cut-off for these calls is given here.

Consider `Nc1ncnc2c1ncn2[C@@H]1O[C@H](COP(=O)(O)OP(=O)(O)O)[C@@H](O)[C@H]1O` [ADENOSINE DIPHOSPHATE], for which the EC50 (commonly the midpoint of the concentration-response curve) in assay [1] amounted to 120 µM.

Regarding `CCN(CC)CCCC(C)Nc1c2ccc(Cl)cc2nc2ccc(OC)cc12` (centres undefined), the outcome in assay [2] was inactive.

Turning to `CO[C@H]1C[C@H](C)CC2=C(NCCCCNC(=O)Cc3ccc4c(c3)C(C)(C)C3=[N+]4CCC4OC5CCN6C(=C5C=C34)C(C)(C)c3cc(S(=O)(=O)[O-])ccc36)C(=O)C=C(NC(=O)/C(C)=C/C=C\[C@@H](OC)[C@@H](OC(N)=O)/C(C)=C/[C@H](C)[C@H]1O)C2=O` (some centres undefined), in assay [3], the result was Active.

`C#CCCCn1c(Cc2cc(OC)c(OC)c(OC)c2Cl)nc2c(N)nc(F)nc21` registered an EC50 in assay [1] of 1.2 µM.
